Patent publication US20100256104A1, “NOVEL AMIDE COMPOUNDS” (ASTRAZENECA R&D, priority 2009, published 2010)

These molecules were tested against T1, recombinant human GR (Homo sapiens, UniProt P04150) (assay: Human Glucocorticoid Receptor (GR) Assay, fluorescence polarization competition with GS Red tracer). Details: 2 hours at room temperature, 100% control 10 μM Dexamethasone, XLfit model 205, read-out: Inhibition of GR binding, IC50.
T1 construct: purchased Panvera/Invitrogen P2812 (kit P2893)
T1 sequence (P04150 1-777): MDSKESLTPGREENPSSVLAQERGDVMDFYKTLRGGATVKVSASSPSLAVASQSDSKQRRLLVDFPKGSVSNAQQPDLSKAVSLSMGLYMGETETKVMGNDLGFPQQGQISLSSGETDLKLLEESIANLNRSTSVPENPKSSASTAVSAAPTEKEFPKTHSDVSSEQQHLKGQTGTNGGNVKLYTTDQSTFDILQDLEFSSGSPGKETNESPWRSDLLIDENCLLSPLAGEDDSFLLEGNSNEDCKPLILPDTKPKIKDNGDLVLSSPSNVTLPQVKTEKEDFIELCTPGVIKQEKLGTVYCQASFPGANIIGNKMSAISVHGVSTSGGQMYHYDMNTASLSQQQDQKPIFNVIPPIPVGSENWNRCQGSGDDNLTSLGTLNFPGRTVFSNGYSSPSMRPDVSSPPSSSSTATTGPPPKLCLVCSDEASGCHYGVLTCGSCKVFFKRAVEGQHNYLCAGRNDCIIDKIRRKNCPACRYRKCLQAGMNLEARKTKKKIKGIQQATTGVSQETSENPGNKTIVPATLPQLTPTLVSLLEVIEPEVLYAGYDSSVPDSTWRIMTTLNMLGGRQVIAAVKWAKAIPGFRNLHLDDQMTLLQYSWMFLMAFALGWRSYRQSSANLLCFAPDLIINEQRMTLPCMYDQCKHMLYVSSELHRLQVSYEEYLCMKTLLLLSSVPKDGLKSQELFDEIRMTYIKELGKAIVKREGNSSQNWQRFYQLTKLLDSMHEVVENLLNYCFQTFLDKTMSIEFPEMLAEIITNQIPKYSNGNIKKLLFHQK
Protocol: Human Glucocorticoid Receptor (GR) Assay The assay is based on a commercial kit from Panvera/Invitrogen (Part number P2893). The assay technology is fluorescence polarization. The kit utilises recombinant human GR (Panvera, Part number P2812), a Fluoromone™ labelled tracer (GS Red, Panvera, Part number P2894) and a Stabilizing Peptide 10X (Panvera, Part number P2815). The GR and Stabilizing Peptide reagents are stored at −70° C. while the GS Red is stored at −20° C. Also included in the kit are 1M DTT (Panvera, Part number P2325, stored at −20° C.) and GR Screening buffer 10X (Panvera, Part number P2814, stored at −70° C. initially but once thawed stored at room temperature). Avoid repeated freeze/thaws for all reagents. The GR Screening buffer 10X comprises 100 mM potassium phosphate, 200 mM sodium molybdate, 1 mM EDTA and 20% DMSO. Test compounds (1 μL) and controls (1 μL) in 100% DMSO were added to black polystyrene 384-well plates (Greiner low volume black flat-bottom, part number 784076). 0% control was 100% DMSO and 100% control was 10 μM Dexamethasone. Background solution (8 μL; assay buffer 10X, Stabilizing Peptide, DTT and ice cold MQ water) was added to the background wells. GS Red solution (7 μL; assay buffer 10X, Stabilizing Peptide, DTT, GS Red and ice cold water) was added to all wells except background wells. GR solution (7 μL; assay buffer 10X, Stabilizing Peptide, DTT, GR and ice cold water) was added to all wells. The plate was sealed and incubated in a dark at room temperature for 2 hours. The plate was read in an Analyst plate reader (LJL Biosystems/Molecular Devices Corporation) or other similar plate reader capable of recording fluorescence polarization (excitation wavelength 530 nm, emission wavelength 590 nm and a dichroic mirror at 561 nm).

Row | IC50 [nM] | Compound
1 | 6.5 | CCC(=O)O[C@]1(C(=O)SCF)CC[C@H]2[C@@H]3CCC4=Cc5c(cnn5-c5cccc(C(=O)N[C@@H](C)C(N)=O)c5)C[C@]4(C)[C@@]3(F)[C@@H](O)C[C@@]21C [Example 35, (1R,3aS,3bS,10aS, 10bR,11S,12aS)-7-(3-{[(1S)-2-amino-1-methyl-2-oxoethyl]carbamoyl}phenyl)-10b-fluoro-1-{[(fluoromethyl)sulfanyl]carbonyl}-11-hydroxy-10a,12a-dimethyl-1,2,3,3a,3b,4,5,7,10,10a, 10b,11,12,12a-tetradecahydrocyclo-penta[5,6]naphtho [1,2-f]indazol-1-yl propanoate]
2 | 5.2 | CCC(=O)O[C@]1(C(=O)SCF)CC[C@H]2[C@@H]3CCC4=Cc5c(cnn5-c5cccc(C(=O)NC)c5)C[C@]4(C)[C@@]3(F)[C@@H](O)C[C@@]21C [Example 33, (1R,3aS,3bS,10aS, 10bR,11S,12aS)-10b-fluoro-1-{[(fluoromethyl)sulfanyl]carbonyl}-11-hydroxy-10a,12a-dimethyl-7[3-(methylcarbamoyl)phenyl]-1,2,3,3a,3b,4,5,7,10, 10a,10b,11,12,12a-tetradecahydrocyclo-penta[5,6]naphtho [1,2-f]indazol-1-yl propanoate]
3 | 6.9 | CCC(=O)O[C@]1(C(=O)SCCO)CC[C@H]2[C@@H]3CCC4=Cc5c(cnn5-c5cccc(C(=O)N6CCC[C@@H]6C(N)=O)c5)C[C@]4(C)[C@@]3(F)[C@@H](O)C[C@@]21C [Example 58, (1R,3aS,3bS,10aS, 10bR,11S,12aS)-7-(3-{[(2R)-2-carbamoyl-pyrrolidin-1-yl]carbonyl}phenyl)-10b-fluoro-11-hydroxy-1-{[(2-hydroxyethyl)sulfanyl]carbonyl}-10a,12a-dimethyl-1,2,3,3a,3b,4,5,7,10, 10a,10b,11,12,12a-tetradecahydrocyclo-penta[5,6]naphtho [1,2-f]indazol-1-yl propanoate]
4 | 1.5 | COCC(=O)O[C@]1(C(=O)SCC#N)CC[C@H]2[C@@H]3CCC4=Cc5c(cnn5-c5cccc(C(=O)NCc6cccnc6)c5)C[C@]4(C)[C@H]3[C@@H](O)C[C@@]21C [Example 52, (1R,3aS,3bS,10aR, 10bS,11S,12aS)-1-{[(cyanomethyl)sulfanyl]carbonyl}-11-hydroxy-10a,12a-dimethyl-7-{3-[(pyridin-3-ylmethyl)carbamoyl]phenyl}-1,2,3,3a,3b,4,5,7,10, 10a,10b,11,12,12a-tetradecahydrocyclo-penta[5,6]naphtho [1,2-f]indazol-1-yl methoxyacetate]
5 | 3.6 | CCC(=O)O[C@]1(C(=O)SCF)CC[C@H]2[C@@H]3CCC4=Cc5c(cnn5-c5cccc(C(=O)N6CCC[C@@H]6C(N)=O)c5)C[C@]4(C)[C@@]3(F)[C@@H](O)C[C@@]21C [Example 61, (1R,3aS,3bS,10aS, 10bR,11S,12aS)-7-(3-{[(2R)-2-carbamoyl-pyrrolidin-1-yl]carbonyl}phenyl)-10b-fluoro-1-{[(fluoromethyl)sulfanyl]carbonyl}-11-hydroxy-10a,12a-dimethyl-1,2,3,3a,3b,4,5,7,10, 10a,10b,11,12,12a-tetradecahydrocyclo-penta[5,6]naphtho [1,2-f]indazol-1-yl propanoate]
6 | 2.8 | CCC(=O)O[C@]1(C(=O)SCF)[C@H](C)C[C@H]2[C@@H]3CCC4=Cc5c(cnn5-c5cccc(C(=O)N[C@@H](C)C(N)=O)c5)C[C@]4(C)[C@@]3(F)[C@@H](O)C[C@@]21C [Example 25, (1R,2R,3aS,3bS, 10aS,10bR,11S,12aS)-7-(3-{[(1S)-2-amino-1-methyl-2-oxoethyl]carbamoyl}phenyl)-10b-fluoro-1-{[(fluoromethyl)-sulfanyl]carbonyl}-11-hydroxy-2,10a,12a-trimethyl-1,2,3,3a,3b,4,5,7,10, 10a,10b,11,12,12a-tetradecahydrocyclo-penta[5,6]naphtho [1,2-f]indazol-1-yl propanoate]
